Measured values from patent US4051237A, “Glycopeptide antibiotics Bu-2231 A and B and process for producing same” (priority 1975, dated 1977).

Key:
[1] = test system: Mycobacterium ranae, ATCC110; experiment: MIC by two-fold agar dilution; assay type: cell-based; settings: Medium #1001, unit assumed
T. asteroides = experiment: MIC by two-fold agar dilution; assay type: cell-based; settings: Ta-1 T. asteroides; sabouraud agar; unit assumed
B. mycoides "0" = assay type: cell-based; settings: Mueller-Hinton agar, unit assumed
P. aeruginosa A9930 = experiment: MIC by two-fold agar dilution; assay type: cell-based; settings: Mueller-Hinton agar, unit assumed
P. stuartii A20734 = experiment: MIC by two-fold agar dilution; assay type: cell-based; settings: Mueller-Hinton agar, unit assumed
P. vulgaris A9436 = experiment: MIC by two-fold agar dilution; assay type: cell-based; settings: Mueller-Hinton agar, unit assumed
Mycobacterium phlei, D88 = experiment: MIC by two-fold agar dilution; assay type: cell-based; settings: Medium #1001, unit assumed
C. albicans IAM 4888 = experiment: MIC by two-fold agar dilution; assay type: cell-based; settings: Ca-1 C. albicans IAM 4888; sabouraud agar; unit assumed
C. neoformans (Cn-1) = experiment: MIC by two-fold agar dilution; assay type: cell-based; settings: Cn-1 C. neoformans; sabouraud agar; unit assumed
B. sphaericus #122 = experiment: MIC by two-fold agar dilution; assay type: cell-based; settings: Mueller-Hinton agar, unit assumed
P. aeruginosa H9, D113 = experiment: MIC by two-fold agar dilution; assay type: cell-based; settings: Mueller-Hinton agar, unit assumed
C. neoformans IAM 4514 = experiment: MIC by two-fold agar dilution; assay type: cell-based; settings: Cn-2 C. neoformans IAM 4514; sabouraud agar; unit assumed
A. niger var Tieghem = experiment: MIC by two-fold agar dilution; assay type: cell-based; settings: An-1 A. niger var Tieghem; sabouraud agar; unit assumed
[2] = test system: C. albicans #520 Yale A9540; experiment: MIC by two-fold agar dilution; assay type: cell-based; settings: Ca-4 C. albicans #520 Yale A9540; sabouraud agar; unit assumed
S. aureus 209P, R4 = experiment: MIC by two-fold agar dilution; assay type: cell-based; settings: Mueller-Hinton agar, unit assumed
Experimental: The minimum inhibitory concentrations (MIC) of Bu-2231 A and B were determined against a wide variety of bacteria and fungi by the two-fold agar dilution method. Mueller-Hinton agar medium was used for the determination of bacterial MIC's (gram-positive and gram-negative), Medium #1001 [Glycerol (3%). Na-glutamate (0.3%), peptone (0.2%), Na2 HPO4 (0.31%), KH2 PO4 (0.1%), ammonium citrate (0.005%), MgSO4.7H2 O (0.001%), agar (1.5%)] for acid-fast bacteria and sabouraud agar for fungi. The results are shown in Tables 9 and 10 comparatively with bleomycin and phleomycin. The antibacterial and antifungal activities of Bu-2231 A and B are much higher than those of the reference antibiotics.

P. stuartii A20894 = experiment: MIC by two-fold agar dilution; assay type: cell-based; settings: Mueller-Hinton agar, unit assumed
S. cerevisiae IAM 4009 = experiment: MIC by two-fold agar dilution; assay type: cell-based; settings: Sc-2 S. cerevisiae IAM 4009; sabouraud agar; unit assumed
Sporotrichum sp. = experiment: MIC by two-fold agar dilution; assay type: cell-based; settings: Sy-1 Sporotrichum sp.; sabouraud agar; unit assumed
P. mirabilis A9554 = experiment: MIC by two-fold agar dilution; assay type: cell-based; settings: Mueller-Hinton agar, unit assumed
C. tropicalis IAM 4157 = experiment: MIC by two-fold agar dilution; assay type: cell-based; settings: Ct-1 C. tropicalis IAM 4157; sabouraud agar; unit assumed
K. pneumoniae D11 = experiment: MIC by two-fold agar dilution; assay type: cell-based; settings: Mueller-Hinton agar, unit assumed
E. coli A20665 = experiment: MIC by two-fold agar dilution; assay type: cell-based; settings: Mueller-Hinton agar, unit assumed
P morganii A9553 = experiment: MIC by two-fold agar dilution; assay type: cell-based; settings: Mueller-Hinton agar, unit assumed
Mycobacterium 607, D46 = experiment: MIC by two-fold agar dilution; assay type: cell-based; settings: Medium #1001, unit assumed
E. coli NIHJ [3] = experiment: In vivo activity in experimental mice infection; settings: Table 12
Experimental: The in vivo activity of Bu-2231 complex was evaluated in experimental mice infections against S. aureus Smith and E. coli NIHJ. Bleomycin was tested comparatively as a reference antibiotic.
The in vivo activty of the individual components of Bu-2231 in each of the copper-free and copper complex forms was also determined in E. coli infection.

P. rettgeri A15167 = experiment: MIC by two-fold agar dilution; assay type: cell-based; settings: Mueller-Hinton agar, unit assumed
T. rubrum D-55 = experiment: MIC by two-fold agar dilution; assay type: cell-based; settings: Tr-1 T. rubrum D-55; sabouraud agar; unit assumed
S. marcescens A20460 = experiment: MIC by two-fold agar dilution; assay type: cell-based; settings: Mueller-Hinton agar, unit assumed
S. aureus Smith A9537 = experiment: MIC by two-fold agar dilution; assay type: cell-based; settings: Mueller-Hinton agar, unit assumed
P. aeruginosa A20741 = experiment: MIC by two-fold agar dilution; assay type: cell-based; settings: Mueller-Hinton agar, unit assumed
S. lutea PCI-1001 = experiment: MIC by two-fold agar dilution; assay type: cell-based; settings: Mueller-Hinton agar, unit assumed
B. subtilis PCI-219 = experiment: MIC by two-fold agar dilution; assay type: cell-based; settings: Mueller-Hinton agar, unit assumed
K. pneumoniae A20328 = experiment: MIC by two-fold agar dilution; assay type: cell-based; settings: Mueller-Hinton agar, unit assumed
Mycobacterium 607, D87 = experiment: MIC by two-fold agar dilution; assay type: cell-based; settings: Medium #1001, unit assumed
S. marcescens A21235 = experiment: MIC by two-fold agar dilution; assay type: cell-based; settings: Mueller-Hinton agar, unit assumed
P. aeruginosa A 9923 = experiment: MIC by two-fold agar dilution; assay type: cell-based; settings: Mueller-Hinton agar, unit assumed
S. aureus A20239 = experiment: MIC by two-fold agar dilution; assay type: cell-based; settings: Mueller-Hinton agar, unit assumed
E. coli NIHJ [4] = experiment: MIC by two-fold agar dilution; assay type: cell-based; settings: Mueller-Hinton agar, unit assumed
C. krusei IAM 4489 = experiment: MIC by two-fold agar dilution; assay type: cell-based; settings: Ck-1 C. krusei IAM 4489; sabouraud agar; unit assumed
K. pneumoniae A9678 = experiment: MIC by two-fold agar dilution; assay type: cell-based; settings: Mueller-Hinton agar, unit assumed

Cc1c(N)nc([C@H](CC(N)=O)NC[C@@H](N)C(N)=O)nc1C(=O)N[C@H](C(=O)N[C@H](C)[C@@H](O)CC(=O)N[C@@H](C(=O)NC(O[C@@H]1O[C@@H](C)[C@@H](N)[C@@H](O)[C@H]1O)C(O)c1nc(-c2nc(C(=O)NCCCNCCCCN)cs2)cs1)[C@@H](C)O)C(O[C@@H]1O[C@@H](CO)[C@H](O)[C@@H](O)[C@@H]1O[C@H]1O[C@H](CO)[C@@H](O)[C@@H](OC(N)=O)[C@@H]1O)c1cnc[nH]1 (stereo partly drawn) [Bu-2231 B Cu-free]
0.065 mg/kg: PD50 (E. coli NIHJ [3]; E. coli NIHJ infection, mice, sc)
0/5: In vivo activity vs. E. coli NIHJ infection (x/5 mice) (E. coli NIHJ [3]; dose (sc) 0.008)
0.2 µg/mL: MIC (B. mycoides "0") | MIC (P. vulgaris A9436) | MIC (C. neoformans (Cn-1)) | MIC (B. sphaericus #122) | MIC (C. neoformans IAM 4514) | MIC (A. niger var Tieghem) | MIC (S. cerevisiae IAM 4009) | MIC (P. mirabilis A9554) | MIC (P. aeruginosa A20741) | MIC (E. coli NIHJ [4])
3.1 µg/mL: MIC (Sporotrichum sp.)
5/5: In vivo activity vs. E. coli NIHJ infection (x/5 mice) (E. coli NIHJ [3]; dose (sc) 0.5) | In vivo activity vs. E. coli NIHJ infection (x/5 mice) (E. coli NIHJ [3]; dose (sc) 2)
0.025 µg/mL: MIC (K. pneumoniae D11)
4/5: In vivo activity vs. E. coli NIHJ infection (x/5 mice) (E. coli NIHJ [3]; dose (sc) 0.13)
> 100 µg/mL: MIC (P. aeruginosa H9, D113) | MIC (P. aeruginosa A 9923)
0.05 µg/mL: MIC (Mycobacterium phlei, D88) | MIC (E. coli A20665) | MIC (S. aureus Smith A9537)
1/5: In vivo activity vs. E. coli NIHJ infection (x/5 mice) (E. coli NIHJ [3]; dose (sc) 0.03)
1.6 µg/mL: MIC [2] | MIC (P morganii A9553) | MIC (K. pneumoniae A20328) | MIC (S. marcescens A21235)
0.1 µg/mL: MIC [1] | MIC (Mycobacterium 607, D46) | MIC (Mycobacterium 607, D87)
< 0.0063 µg/mL: MIC (B. subtilis PCI-219)
0.8 µg/mL: MIC (T. asteroides) | MIC (P. aeruginosa A9930) | MIC (P. stuartii A20734) | MIC (C. albicans IAM 4888) | MIC (S. aureus 209P, R4) | MIC (C. tropicalis IAM 4157) | MIC (P. rettgeri A15167) | MIC (T. rubrum D-55) | MIC (S. marcescens A20460) | MIC (S. aureus A20239)
0.4 µg/mL: MIC (P. stuartii A20894) | MIC (S. lutea PCI-1001) | MIC (C. krusei IAM 4489) | MIC (K. pneumoniae A9678)
